What was measured:
Type in all cases: in vivo
Conditions in all cases: evaluated after 13 days
Setaria faberi (SETFA) [1] = assay: Pre-emergence Test, Setaria faberi (SETFA)
[2] = test system: Echinochloa crus-galli (ECHCG); assay: Pre-emergence Test, Echinochloa crus-galli (ECHCG)
Zea mays (ZEAMX) [3] = assay: Pre-emergence Test, Zea mays (ZEAMX)
[4] = test system: Ipomoea hederacea (IPOHE); assay: Pre-emergence Test, Ipomoea hederacea (IPOHE)
[5] = test system: Amaranthus palmeri (AMAPA); assay: Pre-emergence Test, Amaranthus palmeri (AMAPA)
[6] = test system: Amaranthus retoflexus (AMARE); assay: Pre-emergence Test, Amaranthus retoflexus (AMARE)
Setaria faberi (SETFA) [7] = assay: Post-emergence Test, Setaria faberi (SETFA); parameters: key to percentage damage caused to the plant, SETFA (five-point scale): 5=81-100%, 4=61-80%, 3=41-60%, 2=21-40%, 1=0-20% damage
In short: (§1)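 Sown pots in a glasshouse (24/16 °C day/night, 14 h light, 65% humidity) were sprayed with compound in acetone/water (50:50) with 0.5% Tween 20, at 1000 g/ha unless otherwise stated. Damage was assessed 13 days after spraying and scored 1–5 (5=81-100%, 1=0-20%).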

[8] = test system: Echinochloa crus-galli (ECHCG); assay: Post-emergence Test, Echinochloa crus-galli (ECHCG); parameters: key to percentage damage caused to the plant, ECHCG (five-point scale): 5=81-100%, 4=61-80%, 3=41-60%, 2=21-40%, 1=0-20% damage
In short: as §1

Zea mays (ZEAMX) [9] = assay: Post-emergence Test, Zea mays (ZEAMX); parameters: key to percentage damage caused to the plant, ZEAMX (five-point scale): 5=81-100%, 4=61-80%, 3=41-60%, 2=21-40%, 1=0-20% damage
In short: as §1

[10] = test system: Ipomoea hederacea (IPOHE); assay: Post-emergence Test, Ipomoea hederacea (IPOHE); parameters: key to percentage damage caused to the plant, IPOHE (five-point scale): 5=81-100%, 4=61-80%, 3=41-60%, 2=21-40%, 1=0-20% damage
In short: as §1

[11] = test system: Amaranthus palmeri (AMAPA); assay: Post-emergence Test, Amaranthus palmeri (AMAPA); parameters: key: 5=81-100%, 4=61-80%, 3=41-60%, 2=21-40%, 1=0-20% damage
In short: as §1

[12] = test system: Amaranthus retoflexus (AMARE); assay: Post-emergence Test, Amaranthus retoflexus (AMARE); parameters: key to percentage damage caused to the plant, AMARE (five-point scale): 5=81-100%, 4=61-80%, 3=41-60%, 2=21-40%, 1=0-20% damage
In short: as §1

Row | Compound | Pre-emergence Test SETFA, percentage damage caused to the plant (five-point scale) (Setaria faberi (SETFA) [1]; 250 g/Ha (*)) | Pre-emergence Test SETFA, percentage damage caused to the plant (five-point scale) (Setaria faberi (SETFA) [1]; 1000 g/ha) | Pre-emergence Test ECHCG, percentage damage caused to the plant (five-point scale) ([2]; 250 g/Ha (*)) | Pre-emergence Test ECHCG, percentage damage caused to the plant (five-point scale) ([2]; 1000 g/ha) | Pre-emergence Test ZEAMX, percentage damage caused to the plant (five-point scale) (Zea mays (ZEAMX) [3]; 250 g/Ha (*)) | Pre-emergence Test ZEAMX, percentage damage caused to the plant (five-point scale) (Zea mays (ZEAMX) [3]; 1000 g/ha) | Pre-emergence Test IPOHE, percentage damage caused to the plant (five-point scale) ([4]; 250 g/Ha (*)) | Pre-emergence Test IPOHE, percentage damage caused to the plant (five-point scale) ([4]; 1000 g/ha) | Pre-emergence Test AMAPA, percentage damage caused to the plant (five-point scale) ([5]; 250 g/Ha (*)) | Pre-emergence Test AMAPA, percentage damage caused to the plant (five-point scale) ([5]; 1000 g/ha) | Pre-emergence Test AMARE, percentage damage caused to the plant (five-point scale) ([6]; 250 g/Ha (*)) | Pre-emergence Test AMARE, percentage damage caused to the plant (five-point scale) ([6]; 1000 g/ha) | percentage damage caused to the plant, SETFA (five-point scale) (Setaria faberi (SETFA) [7]; 250 g/Ha) | percentage damage caused to the plant, SETFA (five-point scale) (Setaria faberi (SETFA) [7]; 1000 g/ha) | percentage damage caused to the plant, ECHCG (five-point scale) ([8]; 250 g/Ha) | percentage damage caused to the plant, ECHCG (five-point scale) ([8]; 1000 g/ha) | percentage damage caused to the plant, ZEAMX (five-point scale) (Zea mays (ZEAMX) [9]; 250 g/Ha) | percentage damage caused to the plant, IPOHE (five-point scale) ([10]; 250 g/Ha) | percentage damage caused to the plant, AMAPA (five-point scale) ([11]; 250 g/Ha) | percentage damage caused to the plant, AMARE (five-point scale) ([12]; 250 g/Ha) | also measured
1 | CCn1c(Cn2cc3c(n2)COC3)cc(=O)c(C(=O)O)c1-c1ccc(Cl)c(Cl)c1 [Compound 92, 2-(3,4-dichlorophenyl)-6-(4,6-dihydrofuro[3,4-c]pyrazol-2-ylmethyl)-1-ethyl-4-oxo-pyridine-3-carboxylic acid] | 3 (3=41-60%) | 4 (4=61-80%) | 3 (3=41-60%) | 4 (4=61-80%) | 0 | 0 | 3 (3=41-60%) | 2 (2=21-40%) | 1 (1=0-20%) | 2 (2=21-40%) | 0 | 0 | 3 (3=41-60%) | 3 (3=41-60%) | 3 (3=41-60%) | 4 (4=61-80%) | 2 (2=21-40%) | 3 (3=41-60%) | 2 (2=21-40%) | 2 (2=21-40%) | percentage damage caused to the plant, ZEAMX (five-point scale) (Zea mays (ZEAMX) [9]; 1000 g/ha): 2 (2=21-40%); percentage damage caused to the plant, IPOHE (five-point scale) ([10]; 1000 g/ha): 3 (3=41-60%); percentage damage caused to the plant, AMAPA (five-point scale) ([11]; 1000 g/ha): 2 (2=21-40%); percentage damage caused to the plant, AMARE (five-point scale) ([12]; 1000 g/ha): 2 (2=21-40%)
2 | CCn1c(Cn2ncc(Cl)c2C2CC2)cc(=O)c(C(=O)O)c1-c1ccc(Cl)c(Cl)c1 [Compound 93, 6-[(4-chloro-5-cyclopropyl-pyrazol-1-yl)methyl]-2-(3,4-dichlorophenyl)-1-ethyl-4-oxo-pyridine-3-carboxylic acid] | 0 | – | 0 | – | 0 | – | 0 | – | 2 (2=21-40%) | – | 1 (1=0-20%) | – | 1 (1=0-20%) | – | 2 (2=21-40%) | – | 1 (1=0-20%) | 1 (1=0-20%) | 1 (1=0-20%) | 1 (1=0-20%) | –
3 | CCn1c(Cn2cc(Cl)c(C3CC3)n2)cc(=O)c(C(=O)O)c1-c1ccc(Cl)c(Cl)c1 [Compound 94, 6-[(4-chloro-3-cyclopropyl-pyrazol-1-yl)methyl]-2-(3,4-dichlorophenyl)-1-ethyl-4-oxo-pyridine-3-carboxylic acid] | 1 (1=0-20%) | 1 (1=0-20%) | 2 (2=21-40%) | 2 (2=21-40%) | 0 | 0 | 0 | 1 (1=0-20%) | 1 (1=0-20%) | 2 (2=21-40%) | 0 | 1 (1=0-20%) | 0 | 4 (4=61-80%) | 4 (4=61-80%) | 1 (1=0-20%) | 0 | 0 | 2 (2=21-40%) | 3 (3=41-60%) | percentage damage caused to the plant, ZEAMX (five-point scale) (Zea mays (ZEAMX) [9]; 1000 g/ha): 0; percentage damage caused to the plant, IPOHE (five-point scale) ([10]; 1000 g/ha): 3 (3=41-60%); percentage damage caused to the plant, AMAPA (five-point scale) ([11]; 1000 g/ha): 3 (3=41-60%); percentage damage caused to the plant, AMARE (five-point scale) ([12]; 1000 g/ha): 3 (3=41-60%)
4 | CCn1c(Cn2cc(C)c(C(F)(F)F)n2)cc(=O)c(C(=O)O)c1-c1ccc(Cl)c(Cl)c1 [Compound 96, 2-(3,4-dichlorophenyl)-1-ethyl-6-[[4-methyl-3-(trifluoromethyl)pyrazol-1-yl]methyl]-4-oxo-pyridine-3-carboxylic acid] | – | 3 (3=41-60%) | – | 3 (3=41-60%) | – | 0 | – | 1 (1=0-20%) | – | 1 (1=0-20%) | – | 1 (1=0-20%) | 0 | 3 (3=41-60%) | 2 (2=21-40%) | 2 (2=21-40%) | 0 | 0 | 0 | 0 | percentage damage caused to the plant, ZEAMX (five-point scale) (Zea mays (ZEAMX) [9]; 1000 g/ha): 4 (4=61-80%); percentage damage caused to the plant, IPOHE (five-point scale) ([10]; 1000 g/ha): 0; percentage damage caused to the plant, AMAPA (five-point scale) ([11]; 1000 g/ha): 0; percentage damage caused to the plant, AMARE (five-point scale) ([12]; 1000 g/ha): 1 (1=0-20%)
5 | CCn1c(Cn2ncc3cc(Cl)ccc32)cc(=O)c(C(=O)O)c1-c1ccc(Cl)c(Cl)c1 [Compound 98, 6-[(5-chloroindazol-1-yl)methyl]-2-(3,4-dichlorophenyl)-1-ethyl-4-oxo-pyridine-3-carboxylic acid] | 0 | – | 0 | – | 0 | – | 0 | – | 1 (1=0-20%) | – | 0 | – | 1 (1=0-20%) | – | 2 (2=21-40%) | – | 1 (1=0-20%) | 1 (1=0-20%) | 0 | 1 (1=0-20%) | –
6 | CCn1c(Cn2cc(C(C)=O)c(C)n2)cc(=O)c(C(=O)O)c1-c1ccc(Cl)c(Cl)c1 [Compound 100, 6-[(4-acetyl-3-methyl-pyrazol-1-yl)methyl]-2-(3,4-dichlorophenyl)-1-ethyl-4-oxo-pyridine-3-carboxylic acid] | – | 1 (1=0-20%) | – | 0 | – | 0 | – | 2 (2=21-40%) | – | 2 (2=21-40%) | – | 2 (2=21-40%) | 0 | 2 (2=21-40%) | 3 (3=41-60%) | 2 (2=21-40%) | 0 | 0 | 0 | 0 | percentage damage caused to the plant, ZEAMX (five-point scale) (Zea mays (ZEAMX) [9]; 1000 g/ha): 1 (1=0-20%); percentage damage caused to the plant, IPOHE (five-point scale) ([10]; 1000 g/ha): 3 (3=41-60%); percentage damage caused to the plant, AMAPA (five-point scale) ([11]; 1000 g/ha): 2 (2=21-40%); percentage damage caused to the plant, AMARE (five-point scale) ([12]; 1000 g/ha): 2 (2=21-40%)
